Data published in patent publication US20200352889A1, “CYSTATHIONINE COMPOSITIONS AND METHODS OF TREATMENT FOR HEALTH CONDITIONS” (THE REGENTS OF THE UNIVERSITY OF COLORADO, A BODY CORPORATE, priority 2011, published 2020).

Experiments:
[1] = test system: Grp78, Grp94, GADD153; test: Northern and Western blotting of UPR induction in 293AD cells; type: cell-based, human
Protocol: To further assess the effect of cystathionine upon induction of the UPR and GADD153 by ER stress Northern and Western blotting experiments were performed.
Immunoblot analysis of total cell lysates was performed as described previously (4,14). Briefly, following incubation with the appropriate primary and horseradish peroxidase-conjugated secondary antibodies (Affinity Biologicals, Ancaster, ON, Canada) membranes were developed using the Renaissance® Western Blot Chemiluminescence Reagent Kit, (Perkin Elmer, Woodbridge, ON, Canada). Proteins were transferred on a nitrocellulose membrane, and probed with anti-KDEL monoclonal antibody, which recognizes Hsp70, GRP78 and GRP94 that was purchased from Stressgen Biotechnologies (SPA-827) or anti GADD153 (Santa Cruz Biotech #SC-7351). Anti-β-Actin monoclonal antibody (Sigma) was used as a loading control.
Total RNA was isolated from 293AD cells using the RNeasy® total RNA kit (Qiagen, Santa Clarita, Calif.) and resuspended in diethylpyrocarbonate (DEPC)-treated water. Quantification and purity of the RNA was assessed by A260/A280 absorption, and RNA samples with ratios greater than 1.6 were stored at […] for further analysis. Total RNA (10 μg/lane) was fractionated on 2.2 mol/L formaldehyde/1.2% agarose gels and transferred overnight onto Zeta-Probe® GT nylon membranes (Bio-Rad, Toronto, Canada) in 10×SSC. The RNA was cross-linked to the membrane using a UV crosslinker (PDI Bioscience, Toronto, Canada) before hybridization. Specific probes were generated by labeling cDNA fragments with [−32P]dCTP (NEN) using a random primed DNA labeling kit (Boehringer Mannheim, Laval, Canada). The cDNA probe for GADD153 (no. AA627477) was obtained from Genome Systems (St Louis, Mo.). The cDNA probe used for GRP78 is a full length cDNA clone that has been described previously (4). After overnight hybridization at 43° C., the membranes were washed as described by the manufacturer, exposed to x-ray film, and subjected to autoradiography.

[2] = test system: WT mice treated with thapsagargin; test: Thapsagargin-induced acute tubular necrosis in WT mice in the presence and absence of PPG; type: in vivo, mouse; conditions: single IP thapsagargin + daily PPG, three days
From the text: (§1) Wild type mice (WT; n=6) to a single sub-lethal intraperitoneal injection of thapsagargin in the presence and absence of the CGL inactivating compound propargylglycine (PPG). WT mice were randomly assigned to one of four treatment groups (n=6 for each group): 1). control, IP injected with PBS (See FIG. 13, Panel A); 2). I.P. injection with PPG (See FIG. 13, Panel B); 3). single I.P […] thapsagargin (See FIG. 13, Panel C); and 4). thapsagargin+PPG (See FIG. 13, Panel D). In groups 2 and 4, PPG treatment was maintained by daily injection until sacrifice at three days post vehicle/thapsagargin injection. After the completion of this treatment regime, all mice were anaesthetized (isoflourane/oxygen) and sacrificed by decapitation.
as §1, with “(See” for “(See FIG. 13,”, “After the completion of this treatment regime, all mice were anaesthetized (isoflourane/oxygen) and sacrificed by decapitation.” left out

[3] = test system: KDEL containing chaperones and GADD153; test: Immunohistochemical analysis of unfolded protein response in liver and kidney; type: in vivo, mouse
Protocol: While it is not necessary to understand the mechanism of action, it is believed cystathionine may protect against ER stress induced cell injury by increasing the induction of molecular chaperones like Grp78 or by inhibiting the induction of GADD153. In order to investigate the mechanism by which cystathionine is protecting against ER stress induced tissue injury, an immunohistochemical analysis of liver and kidney tissues samples from the experimental groups described above was performed. […] Strong induction of KDEL containing proteins and GADD153 by tunicamycin treatment in both liver and kidneys of the tunicamycin groups was observed (FIG. 8, Panel B).
Prolonged perturbation of the ER is a powerful inducer of the C/EBP family member GADD153 (also known as CHOP) that plays a key role in the induction of programmed cell death by ER stress (10). Previous work has shown that GRP78 over-expression in Chinese hamster ovary cells attenuates both the ER stress-signal and the cell death that is observed in response to calcium ionophores (22) and blocking the expression of GRP78 by means of antisense constructs increase the lethality of agents that promote ER stress (23). Within this context, it is conceivable that cystathionine could protect against ER stress induced cell injury by increasing the induction of molecular chaperones like Grp78 or by inhibiting the induction of GADD153. […]

C#CCC(N)C(=O)O (racemic) [PPG, D,L-2-amino-4-pentynoic acid]
expression of Grp78, Grp94 and GADD15 in control cells ([1]; PPG 5 mM or cystathionine 5 mM, no tunicamycin): Neither PPG nor exogenously added cystathionine induced expression | scale of induction of Grp78, Grp94 and GADD153 in the presence of tunicamycin ([1]; tunicamycin 5 and 10 μg/ml): Nor did either of these treatments significantly alter the scale of induction | thapsagargin-induced renal morphological changes (acute tubular necrosis, histology) [2]: completely ablated | expression of KDEL signature proteins ([3]; PPG treatment alone): did not induce expression | level of induction of KDEL containing chaperones and GADD153 by tunicamycin ([3]; tunicamycin + PPG, liver and kidney): did not appear to affect the level of induction
